How the values were obtained:
[1] = test system: rats exposed to acute altitude hypoxia; experiment: Lipid metabolism in rats exposed to acute altitude hypoxia; format: in vivo, Wistar rat
Protocol: (§1) Select healthy Wistar rats weight 160-200 g, half female and half male. After feeding for 3 days, these Wistar rats are randomly divided into ten groups according to their body weight, each group has 16±2 rats. The groups are divided as follows: five groups of the hypoxic exposure drug test group, respectively, are given 0.91 mg/kg, 1.83 mg/kg, 3.66 mg/kg, 7.31 mg/kg, and 14.63 mg/kg drugs. […] After continuous intragastric administration for 7 days, the animals in the hypoxic exposure group are simultaneously put into the decompression and hypoxia compound experimental chamber, the hatch is closed, and the pressure is reduced at a speed of 10 m/s. After being raised to an altitude of 6000 m and maintained for 8 hours, the speed in 10 m/s drops is reduced to normal altitude, open the hatch, and then take out the animal, collect blood samples (after standing for 1 hour, the supernatant is centrifuged and stored at −20° C.), and liver tissue samples. Detection indicator includes body weight, serum blood glucose, ATP, lactic acid, endothelin, nitric oxide, SOD, CO, MDA related to oxidative stress, and total protein, albumin, triglycerides, total cholesterol, high-density lipoprotein cholesterol, low-density lipoprotein cholesterol, glutamic pyruvic transaminase, total bilirubin, gluamic oxalacetic transaminase, serum urea nitrogen, creatinine, uric acid, lactate dehydrogenase, creatine kinase, α-hydroxybutyrate dehydrogenase; liver ATP, hepatic glycogen. Except that the formal oxygen control animal group is not put into the decompression and hypoxia compound experimental chamber, other experimental conditions and detection indicators are the same.
(§2) Measure blood glucose, total protein, albumin, triglycerides, total cholesterol, high-density lipoprotein cholesterol, low-density lipoprotein cholesterol, glutamic-pyruvic transaminase, total bilirubin, glutamic oxalacetic transaminase, serum urea nitrogen, creatinine, uric acid, lactate dehydrogenase, creatine kinase, α-hydroxybutyrate dehydrogenase, blood homocysteine by using an automatic blood biochemical analyzer.

[2] = Body weight of mice before closed hypoxia tolerance test; details: 0.16 g/kg
[3] = test system: rats exposed to acute altitude hypoxia; experiment: Protein metabolism in rats exposed to acute altitude hypoxia; format: in vivo, Wistar rat; details: for albumin (second column): 0.11 g/kg
Protocol: as §1, §2

[4] = Body weight of male mice in exhaustive swimming experiment; details: 0.16 g/kg
Protocol: Select healthy male Kunming mice weight 18-22 g. After feeding for 3 days, they are randomly divided into seven groups according to their body weight, each group has 10±1 mice. The groups are divided as follows: 5 groups of the drug test group, respectively, are given 1.32 mg/kg, 2.64 mg/kg, 5.28 mg/kg, 10.56 mg/kg, and 21.12 mg/kg drugs by gavage administration. […] After administration for 7 days, select an exhaustive swimming experiment under hypoxic conditions perform physical work ability evaluation; the observation index is an exhaustive swimming time. In the decompression and hypoxia compound laboratory chamber, decompression hypoxia is performed to an altitude of 6000 m, the swimming box is filled with water at a depth of 40 cm and the water temperature is 25° C. The animal is placed in the swimming box, and use a stopwatch to record a time from the start of swimming to exhaustion of the animal. Exhaustive swimming time is the time when an animal still cannot surface for 9 s after sinking.

[5] = test system: rats exposed to acute altitude hypoxia; experiment: Myocardial enzyme activity in rats exposed to acute altitude hypoxia; format: in vivo, Wistar rat; details: for Creatine Kinase / Lactate dehydrogenase / α-hydroxybutyrate dehydrogenase: 0.11 g/kg
Protocol: as §1, §2

[6] = female rats, hypoxia, 0.11 g/kg
[7] = female rats, normoxia, 0.11 g/kg

Question: Which results are given for `CC(=O)Nc1nnc(S(N)(=O)=O)s1` [Acetazolamide, reference compound]?
Answer: High density lipoprotein cholesterol [1, 6]: 1.55 ± 0.19 mmol/L; Low density lipoprotein cholesterol [1, 6]: 0.17 ± 0.04 mmol/L; Total cholesterol [1, 6]: 2.02 ± 0.20 mmol/L; effect on low-density lipoprotein cholesterol ([1]; female rats, normoxia): no significant effects; effect on total cholesterol and high-density lipoprotein cholesterol ([1]; female rats, normoxia): can increase; High density lipoprotein cholesterol [1, 7]: 1.67 ± 0.07 mmol/L; Low density lipoprotein cholesterol [1, 7]: 0.16 ± 0.02 mmol/L; Total cholesterol [1, 7]: 2.14 ± 0.10 mmol/L; effect on total cholesterol, low-density and high-density lipoprotein cholesterol ([1]; hypoxia exposed female rats): increasing; effect on total, high-density and low-density lipoprotein cholesterol ([1]; male rats): no significant effect; effect on triglycerides ([1]; male rats exposed to hypoxia): is not found; High density lipoprotein cholesterol ([1]; male rats, hypoxia, 0.11 g/kg): 1.39 ± 0.14 mmol/L; Low density lipoprotein cholesterol ([1]; male rats, hypoxia, 0.11 g/kg): 0.21 ± 0.05 mmol/L; Total cholesterol ([1]; male rats, hypoxia, 0.11 g/kg): 1.88 ± 0.21 mmol/L; Triglycerides ([1]; male rats, hypoxia, 0.11 g/kg): 1.05 ± 0.49 mmol/L; weight 1 day ([2]; female mice): 20.27 ± 0.90 g; weight 3 days ([2]; female mice): 20.88 ± 1.50 g; weight 1 day ([2]; male mice): 15.41 ± 1.08 g; weight 3 days ([2]; male mice): 15.88 ± 1.24 g; effect on serum total protein content ([3]; female rats): has been not found; albumin (second column) ([3]; female rats, hypoxia): 29.18 ± 1.68 g/L; effect on serum albumin content ([3]; female rats, normoxia): can slightly increase; albumin (second column) ([3]; female rats, normoxia): 32.13 ± 0.45 g/L; effect on serum total protein content ([3]; male rats exposed to hypoxia): is not found; albumin (second column) ([3]; male rats, hypoxia): 27.87 ± 1.140 g/L; body weight male 1 day [4]: 21.28 ± 1.38 g; body weight male 7 days [4]: 23.05 ± 4.41 g; Creatine Kinase ([5]; female rats, hypoxia): 503.40 ± 137.62 U/L; Lactate dehydrogenase ([5]; female rats, hypoxia): 534.00 ± 179.23 U/L; α-hydroxybutyrate dehydrogenase ([5]; female rats, hypoxia): 230.20 ± 75.49 U/L; effect on serum lactic dehydrogenase, creatine kinase, α-hydroxybutyrate dehydrogenase activity ([5]; female rats, normoxia): no significant effects; Creatine Kinase ([5]; female rats, normoxia): 697.67 ± 222.15 U/L; Lactate dehydrogenase ([5]; female rats, normoxia): 998.67 ± 285.56 U/L; α-hydroxybutyrate dehydrogenase ([5]; female rats, normoxia): 430.33 ± 134.10 U/L; effect on serum lactic dehydrogenase, creatine kinase, α-hydroxybutyrate dehydrogenase activity ([5]; hypoxia exposed female rats): no significant effects; effect on serum lactate dehydrogenase, creatine kinase, α-hydroxybutyrate dehydrogenase ([5]; hypoxia exposed male rats): has not been found; Creatine Kinase ([5]; male rats, hypoxia): 352.43 ± 138.11 U/L; Lactate dehydrogenase ([5]; male rats, hypoxia): 303.86 ± 174.67 U/L; α-hydroxybutyrate dehydrogenase ([5]; male rats, hypoxia): 126.29 ± 67.51 U/L

Source: patent US20220023289A1, “Application Of Pyrroloquinoline Quinone In Preparation Of Medicament Used For Preventing And Treating Acute Altitude Sickness And Acute Altitude Hypoxia Injury” (priority 2018, published 2022)
